Results as given in ChEMBL document CHEMBL1141274, “A Polysaccharide from tomato (Lycopersicon esculentum) peels affects NF-kappaB activation in LPS-stimulated J774 macrophages” (2007).

Tests used:
Type in all cases: functional
J774 [1] = assay: Inhibition of iNOS protein expression in mouse J774 cells by Bio-Rad protein assay
J774 [2] = assay: Inhibition of LPS induced nitrite production in mouse J774 cells at 10 uM after 24 hrs relative to control; details: J774, 24 h
J774 [3] = assay: Inhibition of LPS induced ROS production in mouse J774 cells at 10 uM after 24 hrs relative to control; details: J774, 24 h
J774 [4] = assay: Inhibition of LPS induced iNOS mRNA level in mouse J774 cells at 10 uM by RT-PCR

## S=C(S)N1CCCC1 [PYRROLIDINE DITHIOCARBAMATE]
J774 [1]
  Inhibition: 60%
J774 [2]
  inhibition at 10 µM: 69.3%
J774 [3]
  inhibition at 10 µM: 42.2%
J774 [4]
  inhibition at 10 µM: 63.9%
